Results reported in the supplement of paper PMC4862054.

How the values were obtained:
Conditions in all cases: incubation time: 72 h
[1] = system: Hs578T; assay: drug sensitivity score (DSS), CellTox Green (DSS (AUC-based score)); higher = stronger drug effect (viability inhibition or cytotoxicity); extreme values may be limits of the assay
How it was run: (§1)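 The drug sensitivity score reflects the area under a fitted dose-response curve. To obtain it, breast cancer cells in 20 µl suspension were seeded into 384-well plates containing compound at 5 concentrations, 10-fold apart over a compound-specific 10,000-fold range, and incubated 72 h. CellTox Green fluorescence (485/520 nm) was read first and CellTiter-Glo luminescence second, after 10 min at room temperature. Each plate was normalised to 0.1 % DMSO and a positive kill control.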

[2] = system: CAL-120; assay: as above
How it was run: as §1

[3] = system: HCC1599; assay: as above
How it was run: as §1

[4] = system: DU-4475; assay: as above
How it was run: as §1

[5] = system: CAL-51; assay: as above
How it was run: as §1

[6] = system: MDA-MB-468; assay: as above
How it was run: as §1

[7] = system: HDQ-P1; assay: as above
How it was run: as §1

[8] = system: HCC1937; assay: as above
How it was run: as §1

[9] = system: HCC1143; assay: as above
How it was run: as §1

[10] = system: CAL-148; assay: as above
How it was run: as §1

[11] = system: MDA-MB-436; assay: as above
How it was run: as §1

[12] = system: MCF-10A; assay: as above
How it was run: as §1

[13] = system: BT-474; assay: as above
How it was run: as §1

[14] = system: MDA-MB-453; assay: as above
How it was run: as §1

[15] = system: BT-549; assay: drug sensitivity score (DSS), CellTiter-Blue viability (DSS (AUC-based score)); higher = stronger viability inhibition; extreme values may be limits of the assay
How it was run: (§2)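 For each plate, readings were scaled between 0.1 % DMSO and a positive kill control. The cells, breast cancer lines seeded at 20 µl per well into 384-well plates containing a 5- or 9-point compound series, had been incubated for 72 h. Fluorescence at 560/590 nm was taken after 2 h at 37 °C with 2.5 µl CellTiter-Blue per well. Area under the fitted dose-response curve served as the drug sensitivity score.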

[16] = system: Hs578T; assay: as above
How it was run: as §2

[17] = system: CAL-85-1; assay: as above
How it was run: as §2

[18] = system: DU-4475; assay: as above
How it was run: as §2

[19] = system: CAL-51; assay: as above
How it was run: as §2

[20] = system: MDA-MB-468; assay: as above
How it was run: as §2

[21] = system: MDA-MB-231; assay: as above
How it was run: as §2

[22] = system: HDQ-P1; assay: as above
How it was run: as §2

[23] = system: HCC1937; assay: as above
How it was run: as §2

[24] = system: CAL-148; assay: as above
How it was run: as §2

[25] = system: MFM-223; assay: as above
How it was run: as §2

[26] = system: BT-474; assay: as above
How it was run: as §2

SMILES | drug sensitivity score [1] | drug sensitivity score [2] | drug sensitivity score [3] | drug sensitivity score [4] | drug sensitivity score [5] | drug sensitivity score [6] | drug sensitivity score [7] | drug sensitivity score [8] | drug sensitivity score [9] | drug sensitivity score [10] | drug sensitivity score [11] | drug sensitivity score [12] | drug sensitivity score [13] | drug sensitivity score [14] | drug sensitivity score [15] | drug sensitivity score [16] | drug sensitivity score [17] | drug sensitivity score [18] | drug sensitivity score [19] | drug sensitivity score [20] | drug sensitivity score [21] | drug sensitivity score [22] | drug sensitivity score [23] | drug sensitivity score [24] | drug sensitivity score [25] | drug sensitivity score [26]
CCNC(=O)c1noc(-c2cc(C(C)C)c(O)cc2O)c1-c1ccc(CN2CCOCC2)cc1 [NVP-AUY922] | 6.88 | 0.256 | 0 | 5.69 | 6.99 | 0 | 6 | 0.92 | 0 | 12.7 | 0 | 13.6 | 3.93 | 0.086 | 19.6 | 18.8 | 16 | 21.7 | 18.6 | 19.4 | 17.3 | 18 | 26.1 | 18.1 | 20.9 | 15.2
CC1(C)CCC(c2ccc(Cl)cc2)=C(CN2CCN(c3ccc(C(=O)NS(=O)(=O)c4ccc(N[C@H](CCN5CCOCC5)CSc5ccccc5)c(S(=O)(=O)C(F)(F)F)c4)cc3)CC2)C1 [Navitoclax] | 0 | 10.9 | 0 | 0 | 8.56 | 6.68 | 17.2 | 0 | 0 | 4.49 | 0 | – | 2.28 | 0 | 3.17 | 0 | 0 | 17.2 | 0 | 3.12 | 7.75 | 9.87 | 0 | 4.37 | 2.7 | 0
Nc1ccn([C@@H]2O[C@H](CO)[C@@H](O)C2(F)F)c(=O)n1 [Gemcitabine] | 0 | 0 | 0 | 0 | 13.4 | 19.7 | 0 | 0 | 0 | 11.2 | 0 | 0 | 0 | 0 | 6.97 | 7.89 | 12 | 10.7 | 17.6 | 16.1 | 7.17 | 0 | 16.2 | 16.9 | 2.55 | 0
CC(C)(C)NC(=O)[C@H]1CC[C@H]2[C@@H]3CC[C@H]4NC(=O)C=C[C@]4(C)[C@H]3CC[C@]12C [Finasteride] | 2.04 | 0 | 0 | 0 | 0 | 0 | 0 | 0 | 0 | 0 | 0 | 0 | 0 | 0 | 0 | 0 | 0 | 3.01 | 1.63 | 0 | 0 | 0 | 0 | 1.45 | 1.79 | 0
C=CCn1c(=O)c2cnc(Nc3ccc(N4CCN(C)CC4)cc3)nc2n1-c1cccc(C(C)(C)O)n1 [MK1775] | 9.43 | 4.54 | 4.9 | 0 | 15.7 | 11.1 | 9.56 | 0 | 3.3 | 21.1 | 13.8 | 8.71 | 6.62 | 0 | 13.3 | 14.2 | 11.1 | 15 | 16.2 | 11.5 | 15 | 13.6 | 15 | 18.3 | 12.4 | 13
COc1ccc(S(=O)(=O)Nc2cccnc2Nc2ccc(O)cc2)cc1 [ABT-751] | 7.06 | 0.145 | 0 | 0 | 1.79 | 4.39 | 0 | 0 | 0 | 0 | 9.27 | 4 | 0 | 0 | 6.81 | 17.3 | 13.7 | 10.1 | 11.8 | 8.8 | 14.3 | 12 | 14.9 | 10.7 | 8.15 | 7
COc1cc(Nc2c(C#N)cnc3cc(OCCCN4CCN(C)CC4)c(OC)cc23)c(Cl)cc1Cl [Bosutinib] | 3.59 | 0 | 0.637 | 0 | 5.81 | 5.02 | 3.06 | 1.87 | 0 | 2.51 | 2.19 | 7.8 | 5.18 | 1.6 | 5.28 | 3.1 | 5.55 | 2.82 | 3.35 | 5.03 | 6.93 | 6.6 | 6.37 | 7.34 | 4.68 | 5.59
